Experimental data: patent publication US20240228488A1 (TAKEDA PHARMACEUTICAL COMPANY LIMITED, priority 2021, published 2024)

Tests used:
[1] = target: human activated kallikrein enzyme (Homo sapiens, UniProt P03952); test: Plasma kallikrein inhibition, fluorogenic PFR-AMC substrate, 500 pM activated kallikrein format; type: biochemical; details: 500 pM activated kallikrein, 300 uM PFR-AMC, 30 min preincubation, 10 min reaction; read-out: Primary Dose Response Assay: Average EC50
In short: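 500 pM enz + cpd, 30 min RT preinc; start w/ PFR-AMC 300 uM; 10 min RT; Ex380/Em460. Buffer: Tris 20 mM pH 7.5, EDTA 1 mM, NaCl 150 mM, PEG-400 0.1%, Triton 0.1%. EC50.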

plasma kallikrein = target: T1, plasma kallikrein (Homo sapiens, UniProt P03952); test: Neat human plasma assay, FXIIa contact pathway-activated, PFR-AMC substrate; type: biochemical; details: citrated human plasma 78% final, 10 nM human FXIIa, 100 μM PFR-AMC; read-out: Human Plasma Assay: IC90
T1 construct: from tissue
T1 sequence (P03952 391-638 limits assumed): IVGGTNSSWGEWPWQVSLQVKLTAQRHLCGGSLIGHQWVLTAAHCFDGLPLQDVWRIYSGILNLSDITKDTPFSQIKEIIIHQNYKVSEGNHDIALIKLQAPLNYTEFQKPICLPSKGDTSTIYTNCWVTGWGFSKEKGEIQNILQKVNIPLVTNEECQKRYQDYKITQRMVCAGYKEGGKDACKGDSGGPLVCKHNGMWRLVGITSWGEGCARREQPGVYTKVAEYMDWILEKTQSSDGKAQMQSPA
T1 sequence (P03952 20-390 partner limits assumed): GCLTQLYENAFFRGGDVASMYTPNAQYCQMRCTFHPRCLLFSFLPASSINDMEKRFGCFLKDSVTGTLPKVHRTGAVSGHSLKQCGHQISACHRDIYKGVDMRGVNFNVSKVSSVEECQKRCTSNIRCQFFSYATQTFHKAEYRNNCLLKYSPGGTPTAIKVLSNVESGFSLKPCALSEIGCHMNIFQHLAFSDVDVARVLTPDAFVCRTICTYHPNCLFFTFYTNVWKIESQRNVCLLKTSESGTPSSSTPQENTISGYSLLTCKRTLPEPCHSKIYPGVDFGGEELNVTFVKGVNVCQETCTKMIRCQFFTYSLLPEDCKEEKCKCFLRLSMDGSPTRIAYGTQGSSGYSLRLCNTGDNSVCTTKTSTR
Procedure: To analyze inhibition of plasma kallikrein in an ex vivo setting, the potency of compounds was measure in contact pathway-activated plasma assays. In a fluorogenic peptide substrate assay, test compounds dissolved in DMSO were added to sodium citrate collected human or rat plasma in a 96-well microplate. Alternatively, citrated plasma was collected from rats administered the compounds orally or by IV. 10 nM of human FXIIa (Enzyme Research Laboratories) diluted in pKal buffer (20 mM Tris-HCl, pH 7.5, 150 mM NaCl, 1 mM EDTA, 0.1% PEG-8000, and 0.1% Triton X-100) was added to the plasma, followed by the 100 μM of the profluorescent, synthetic plasma kallikrein substrate PFR-AMC (also diluted in pKal buffer). Final plasma concentration in the reaction was 78%. Fluorescence was immediately monitored by excitation/emission wavelengths of 360 nm/480 nm respectively over a period of 5 minutes in a microplate reader. The resulting linear increase in fluorescence emission (reflecting pKal proteolysis of PFR-AMC substrate) was fit to extract a proteolytic rate (fluorescent units over time), and this rate was subsequently plotted against compound inhibitor concentration. Resulting plots were fit to a standard 4-parameter IC50/IC90 equation to determine min/max values, IC50/90, and slope. All experimental steps were performed at room temperature. Table 50 provides results of the assay.

human activated kallikrein enzyme, sequence (P03952 391-638 limits assumed): as the sequence (P03952 391-638 limits assumed) above
human activated kallikrein enzyme, sequence (P03952 20-390 partner limits assumed): as the sequence (P03952 20-390 partner limits assumed) above

SMILES | EC50 [1] [nM] | IC90 (plasma kallikrein) [nM]
N#Cc1ccc(Cl)cc1[C@@H]1C[C@H]1C(=O)Nc1cc(NCc2cn3cc(C4CC4)cc(CO)c3n2)ccn1 (racemic) [Example 100, rac-(1S*,2S*)-2-(5-chloro-2-cyanophenyl)-N-(4-(((6-cyclopropyl-8-(hydroxymethyl)imidazo[1,2-a]pyridin-2-yl)methyl)amino)pyridin-2-yl)cyclopropane-1-carboxamide] | < 1 | 10000 to 48000
O=C(Nc1cc(NCc2cn3cc(C4CC4)ccc3n2)ccn1)[C@H]1C[C@@H]1c1cc(Cl)ccc1-n1cnnn1 (racemic) [Example 287, rac-(1S*,2S*)-2-(5-chloro-2-(1H-tetrazol-1-yl)phenyl)-N-(4-(((6-cyclopropylimidazo[1,2-a]pyridin-2-yl)methyl)amino)pyridin-2-yl)cyclopropane-1-carboxamide] | < 1 | 10000 to 48000
O=C(Nc1cc(NCc2cn3cc(C4CC4)cc(N4CC5CC5C4=O)c3n2)ccn1)[C@H]1C[C@@H]1c1cccc(Cl)c1 (stereo partly drawn) [Example 95, (S,2S)-2-(3-chlorophenyl)-N-(4-(((6-cyclopropyl-8-(2-oxo-3-azabicyclo[3.1.0]hexan-3-yl)imidazo[1,2-a]pyridin-2-yl)methyl)amino)pyridin-2-yl)cyclopropane-1-carboxamide] | < 1 | 1500 to 10000
CN1CCN(c2cc(C3CC3)cn3cc(CNc4ccnc(NC(=O)[C@H]5C[C@@H]5c5cccc(Cl)c5)c4)nc23)C(=O)C1 [Example 127, (1S,2S)-2-(3-chlorophenyl)-N-(4-(((6-cyclopropyl-8-(4-methyl-2-oxopiperazin-1-yl)imidazo[1,2-a]pyridin-2-yl)methyl)amino)pyridin-2-yl)cyclopropane-1-carboxamide] | < 1 | < 400
Cc1ccnc([C@@]2(F)C[C@@H]2C(=O)Nc2cc(N[C@H](C)c3cn4cc(C5CC5)cc(N5CC(=O)N(C)C5=O)c4n3)nc(C)n2)n1 (racemic) [Example 546, rac-(1S*,2S*)—N-(6-(((R)-1-(6-cyclopropyl-8-(3-methyl-2,4-dioxoimidazolidin-1-yl)imidazo[1,2-a]pyridin-2-yl)ethyl)amino)-2-methylpyrimidin-4-yl)-2-fluoro-2-(4-methylpyrimidin-2-yl)cyclopropane-1-carboxamide] | < 1 | 400 to 1500
CCOC(=O)CCc1cc(C2CC2)cn2cc(CNc3ccnc(NC(=O)[C@H]4C[C@@H]4c4cccc(Cl)c4)c3)nc12 [Example I-240, ethyl 3-(2-(((2-((1S,2S)-2-(3-chlorophenyl)cyclopropane-1-carboxamido)pyridin-4-yl)amino)methyl)-6-cyclopropylimidazo[1,2-a]pyridin-8-yl)propanoate] | 1 to 10 | 1500 to 10000
O=C(Nc1cc(NCc2cn3cc(C4CC4)cc(N4CC(=O)N(C5CC5)C4=O)c3n2)ncn1)[C@H]1C[C@@H]1c1cccc(Cl)c1 [Example 399, (1S,2S)-2-(3-chlorophenyl)-N-(6-(((6-cyclopropyl-8-(3-cyclopropyl-2,4-dioxoimidazolidin-1-yl)imidazo[1,2-a]pyridin-2-yl)methyl)amino)pyrimidin-4-yl)cyclopropane-1-carboxamide] | 1 to 10 | 1500 to 10000
Cc1cncc([C@H]2C[C@@H]2C(=O)Nc2cc(NCc3cn4cc(C5CC5)cc(N5CC(=O)N(C)C5=O)c4n3)ncn2)n1 (racemic) [Example 498, rac-(1S*,2S*)-N-(6-(((6-cyclopropyl-8-(3-methyl-2,4-dioxoimidazolidin-1-yl)imidazo[1,2-a]pyridin-2-yl)methyl)amino)pyrimidin-4-yl)-2-(6-methylpyrazin-2-yl)cyclopropane-1-carboxamide] | < 1 | 400 to 1500
CN1C(=O)CN(c2cc(C3CC3)cn3cc(COc4cnnc(NC(=O)[C@H]5C[C@@H]5c5cccc(Cl)c5)c4)nc23)C1=O [Example 557, (1S,2S)-2-(3-chlorophenyl)-N-(5-((6-cyclopropyl-8-(3-methyl-2,4-dioxoimidazolidin-1-yl)imidazo[1,2-a]pyridin-2-yl)methoxy)pyridazin-3-yl)cyclopropane-1-carboxamide] | < 1 | 400 to 1500
O=C(Nc1cc(NCc2cn3cc(C4CC4)cc(CCO)c3n2)ccn1)[C@H]1C[C@@H]1c1cccc(Cl)c1 [Example 292, (1S,2S)-2-(3-chlorophenyl)-N-(4-(((6-cyclopropyl-8-(2-hydroxyethyl)imidazo[1,2-a]pyridin-2-yl)methyl)amino)pyridin-2-yl)cyclopropane-1-carboxamide] | < 1 | 1500 to 10000
Cc1ccnc([C@H]2C[C@@H]2C(=O)Nc2cc(N3C[C@@H](O)C[C@@H]3c3cn4cc(C5CC5)cc(N5CC(=O)N(C)C5=O)c4n3)ncn2)n1 (relative stereo) [Example 473, rac-(1S*,2S*)-N-(6-((2R,4S)-2-(6-cyclopropyl-8-(3-methyl-2,4-dioxoimidazolidin-1-yl)imidazo[1,2-a]pyridin-2-yl)-4-hydroxypyrrolidin-1-yl)pyrimidin-4-yl)-2-(4-methylpyrimidin-2-yl)cyclopropane-1-carboxamide] | < 1 | 400 to 1500
CS(=O)(=O)c1cc(C2CC2)cn2cc(CNc3ccnc(NC(=O)[C@H]4C[C@@H]4c4cccc(Cl)c4)c3)nc12 [Example I-235, (1S,2S)-2-(3-chlorophenyl)-N-(4-(((6-cyclopropyl-8-(methylsulfonyl)imidazo[1,2-a]pyridin-2-yl)methyl)amino)pyridin-2-yl)cyclopropane-1-carboxamide] | < 1 | 400 to 1500
Cc1ccnc([C@H]2C[C@@H]2C(=O)Nc2cc(N3C[C@@H](O)C[C@@H]3c3cn4cc([C@H]5C[C@@H]5C)ccc4n3)ncn2)n1 (relative stereo) [Example 470, (1S,2S)-N-(6-((2R,4S)-4-hydroxy-2-(6-((1S*,2S*)-2-methylcyclopropyl)imidazo[1,2-a]pyridin-2-yl)pyrrolidin-1-yl)pyrimidin-4-yl)-2-(4-methylpyrimidin-2-yl)cyclopropane-1-carboxamide] | 1 to 10 | 1500 to 10000
O=C(Nc1cc(NCc2cn3cc(C4CC4)ccc3n2)ncn1)[C@H]1C[C@@H]1c1cc(Cl)ccn1 (single isomer, unassigned) [Example I-267, rac-(1S*,2S*)-2-(4-chloropyridin-2-yl)-N-(6-(((6-cyclopropylimidazo[1,2-a]pyridin-2-yl)methyl)amino)pyrimidin-4-yl)cyclopropane-1-carboxamide] | 1 to 10 | 10000 to 48000
O=C(Nc1cc(NCc2cn3cc(C4CC4)ccc3n2)ccn1)[C@H]1C[C@@H]1c1cc(Cl)cs1 (racemic) [Example I-219, rac-(1S*,2S*)-2-(4-chlorothiophen-2-yl)-N-(4-(((6-cyclopropylimidazo[1,2-a]pyridin-2-yl)methyl)amino)pyridin-2-yl)cyclopropane-1-carboxamide] | 1 to 10 | 10000 to 48000
Cc1ccc(F)c([C@H]2C[C@@H]2C(=O)Nc2cc(NCc3cn4cc(C5CC5)cc(N5CC(=O)N(C)C5=O)c4n3)ncn2)n1 (racemic) [Example 502, rac-(1S*,2S*)-N-(6-(((6-cyclopropyl-8-(3-methyl-2,4-dioxoimidazolidin-1-yl)imidazo[1,2-a]pyridin-2-yl)methyl)amino)pyrimidin-4-yl)-2-(3-fluoro-6-methylpyridin-2-yl)cyclopropane-1-carboxamide] | < 1 | 400 to 1500
Cc1ccnc([C@H]2C[C@@H]2C(=O)Nc2cc(NCc3cn4cc(C5CC5)cc(N5CC(=O)N(CCO)C5=O)c4n3)ncn2)n1 [Example 464, (1S,2S)-N-(6-(((6-cyclopropyl-8-(3-(2-hydroxyethyl)-2,4-dioxoimidazolidin-1-yl)imidazo[1,2-a]pyridin-2-yl)methyl)amino)pyrimidin-4-yl)-2-(4-methylpyrimidin-2-yl)cyclopropane-1-carboxamide] | < 1 | < 400
O=C(Nc1cc(NCc2cn3cc(C4CC4)cc(N4CCN5CCC4C5)c3n2)ccn1)[C@H]1C[C@@H]1c1cccc(Cl)c1 (stereo partly drawn) [Example I-23, (1S,2S)-N-(4-(((8-(1,4-diazabicyclo[3.2.1]octan-4-yl)-6-cyclopropylimidazo[1,2-a]pyridin-2-yl)methyl)amino)pyridin-2-yl)-2-(3-chlorophenyl)cyclopropane-1-carboxamide] | < 1 | 400 to 1500
O=C(Nc1cc(NCc2cn3cc(C4CC4)cc(N4CCNCC4)c3n2)ccn1)[C@H]1C[C@@H]1c1cccc(Cl)c1 [Example 132, (1S,2S)-2-(3-chlorophenyl)-N-(4-(((6-cyclopropyl-8-(piperazin-1-yl)imidazo[1,2-a]pyridin-2-yl)methyl)amino)pyridin-2-yl)cyclopropane-1-carboxamide] | < 1 | 400 to 1500
